Experimental data as given in patent publication US11020380B2, “Therapeutic compounds” (CELGENE QUANTICEL RESEARCH, INC., priority 2017, dated 2021).
Where two headings read alike, the source gives them in different places.

Columns and labels:
Assay type in all cases: binding
CBP [1] = biological target: CBP (Homo sapiens, UniProt Q92793); assay: In vitro CBP inhibition (AlphaScreen, biotinylated H4-tetraacetyl peptide)
Description: (§1) The CBP-inhibitory activity of the compounds described herein was determined by calculating the IC50. More specifically, CBP inhibitor activity was assayed as follows: CBP was cloned and expressed in E. coli as His-tag protein and purified by Nickel affinity and gel-filtration chromatography. […] CBP binding and inhibition is assessed by monitoring the interaction of biotinylated H4-tetraacetyl peptide (AnaSpec, H4K5/8/12/16(Ac), biotin-labeled) with the target using the AlphaScreen technology (Perkin Elmer). In a 384-well ProxiPlate CBP (50 nM final) was combined with peptide (20 nM final) in 50 mM HEPES (pH 7.3), 10 mM NaCl, 0.25 mM TCEP, 0.1% (w/v) BSA, and 0.005% (w/v) Brij-35 either in the presence of DMSO (final 0.4% DMSO) or compound dilution series in DMSO. After 20 min incubation at room temp, Alpha-streptavidin donor beads and Nickel Chelate acceptor beads were added to a final concentration of 5 μg/mL.
(§2) The ability of the compounds disclosed herein to inhibit CBP activity was quantified and the respective IC50 value determined.

BRD4 = BRD4 (Homo sapiens (Human), UniProt O60885); assay: In vitro enzyme inhibition assay - BRD4 inhibition; details: BRD4 BD1
CBP [2] = assay: In vitro CBP inhibition (AlphaScreen, biotinylated H4-tetraacetyl peptide); details: selectivity CBP vs BRD4
Description: as §1, §2

CBP (Homo sapiens, UniProt Q92793), sequence (Q92793 2-2442 limits assumed): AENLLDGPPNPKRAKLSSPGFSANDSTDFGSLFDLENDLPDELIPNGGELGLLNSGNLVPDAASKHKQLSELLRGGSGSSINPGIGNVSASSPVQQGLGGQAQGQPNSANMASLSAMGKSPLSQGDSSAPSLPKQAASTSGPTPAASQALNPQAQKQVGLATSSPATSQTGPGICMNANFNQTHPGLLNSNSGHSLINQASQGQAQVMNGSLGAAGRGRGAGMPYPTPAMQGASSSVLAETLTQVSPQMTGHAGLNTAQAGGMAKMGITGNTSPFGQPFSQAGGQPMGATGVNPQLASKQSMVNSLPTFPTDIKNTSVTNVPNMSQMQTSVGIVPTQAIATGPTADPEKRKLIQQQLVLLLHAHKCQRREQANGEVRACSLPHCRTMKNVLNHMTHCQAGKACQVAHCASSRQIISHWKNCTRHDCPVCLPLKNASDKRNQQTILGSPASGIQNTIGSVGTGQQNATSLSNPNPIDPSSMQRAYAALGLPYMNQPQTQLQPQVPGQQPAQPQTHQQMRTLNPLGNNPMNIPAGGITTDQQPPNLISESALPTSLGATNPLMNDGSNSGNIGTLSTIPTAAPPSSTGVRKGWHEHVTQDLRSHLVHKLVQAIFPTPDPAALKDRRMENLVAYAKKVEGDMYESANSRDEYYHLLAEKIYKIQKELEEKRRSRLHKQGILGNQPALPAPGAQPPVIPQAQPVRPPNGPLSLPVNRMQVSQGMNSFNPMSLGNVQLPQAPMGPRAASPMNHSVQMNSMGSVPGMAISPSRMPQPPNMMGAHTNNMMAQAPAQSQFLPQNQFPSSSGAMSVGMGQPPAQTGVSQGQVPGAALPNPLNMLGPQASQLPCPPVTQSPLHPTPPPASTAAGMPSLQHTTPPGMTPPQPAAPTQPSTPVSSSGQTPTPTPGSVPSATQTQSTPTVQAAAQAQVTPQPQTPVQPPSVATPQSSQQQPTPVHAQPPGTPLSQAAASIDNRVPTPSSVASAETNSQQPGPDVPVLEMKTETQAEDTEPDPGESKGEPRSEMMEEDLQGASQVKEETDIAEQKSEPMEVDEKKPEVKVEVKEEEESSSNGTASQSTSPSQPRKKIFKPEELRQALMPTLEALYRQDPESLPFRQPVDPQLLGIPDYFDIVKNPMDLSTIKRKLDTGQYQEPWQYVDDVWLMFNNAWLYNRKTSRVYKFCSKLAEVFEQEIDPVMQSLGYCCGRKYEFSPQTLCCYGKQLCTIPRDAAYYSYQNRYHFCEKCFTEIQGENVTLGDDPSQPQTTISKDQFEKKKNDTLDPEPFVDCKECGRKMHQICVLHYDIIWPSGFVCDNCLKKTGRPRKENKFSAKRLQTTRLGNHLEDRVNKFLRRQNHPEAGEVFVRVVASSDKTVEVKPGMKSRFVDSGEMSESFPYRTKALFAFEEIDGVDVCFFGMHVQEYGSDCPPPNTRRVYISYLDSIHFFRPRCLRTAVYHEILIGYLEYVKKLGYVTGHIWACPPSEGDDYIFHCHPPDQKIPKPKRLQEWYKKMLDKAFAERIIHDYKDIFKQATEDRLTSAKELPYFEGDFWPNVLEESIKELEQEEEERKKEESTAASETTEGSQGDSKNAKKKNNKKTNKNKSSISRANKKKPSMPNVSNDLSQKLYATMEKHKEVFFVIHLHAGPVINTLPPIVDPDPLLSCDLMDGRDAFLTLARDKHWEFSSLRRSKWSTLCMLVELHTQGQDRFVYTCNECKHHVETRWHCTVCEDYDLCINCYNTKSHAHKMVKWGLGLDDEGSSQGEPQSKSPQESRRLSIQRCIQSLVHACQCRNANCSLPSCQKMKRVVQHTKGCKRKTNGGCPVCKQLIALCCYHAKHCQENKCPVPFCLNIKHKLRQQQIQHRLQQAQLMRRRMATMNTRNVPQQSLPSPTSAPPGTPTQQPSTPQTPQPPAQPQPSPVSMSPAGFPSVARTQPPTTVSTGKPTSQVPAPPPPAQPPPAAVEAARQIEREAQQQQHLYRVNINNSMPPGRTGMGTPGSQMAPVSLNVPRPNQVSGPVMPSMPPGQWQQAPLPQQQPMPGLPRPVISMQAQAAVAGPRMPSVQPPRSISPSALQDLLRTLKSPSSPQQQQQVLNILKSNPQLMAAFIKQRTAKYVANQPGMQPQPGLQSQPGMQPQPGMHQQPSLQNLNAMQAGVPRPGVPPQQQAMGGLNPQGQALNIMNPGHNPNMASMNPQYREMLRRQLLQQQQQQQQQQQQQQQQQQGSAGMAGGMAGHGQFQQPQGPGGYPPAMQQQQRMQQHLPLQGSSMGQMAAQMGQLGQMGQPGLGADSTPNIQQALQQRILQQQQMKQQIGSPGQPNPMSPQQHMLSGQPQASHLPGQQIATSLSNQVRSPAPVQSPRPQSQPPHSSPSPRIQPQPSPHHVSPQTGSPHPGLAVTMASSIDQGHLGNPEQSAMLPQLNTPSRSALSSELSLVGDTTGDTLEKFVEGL

IC50 for CBP compared with IC50 for BRD4 (CBP [2]) | Compound | IC50 (CBP [1]; read-out: CBP IC50) | IC50 (CBP [1]; read-out: CRREBBP IC50) | IC50 (BRD4)
– | 1-methyl-5-(1-(1-phenylethyl)-1H- pyrazol-4-yl)-4-(pyrrolidin-1-yl) pyridin-2(1H)-one [Example 41] | < 500 nM | < 500 nM | 500 to 5000 nM
– | CNC(=O)[C@@H]1CCN(c2cc(=O)n(C)cc2-c2cnn(Cc3ccccc3)c2)C1 [Example 88] | < 500 nM | – | –
lower IC50 for CBP than for BRD4 | Cn1cc(-c2cnn(Cc3ccccc3)c2)c(-n2cccc2)cc1=O [5-(1-benzyl-1H-pyrazol-4-yl)-1-methyl-4-(1H-pyrrol-1-yl)pyridin-2(1H)-one] | – | – | –
– | CN(C)CCCOc1ccc(-c2cc(=O)n(C)cc2-c2cnn(-c3cccc(Cl)c3C#N)c2)cn1 [Example 356, 2-chloro-6-(4-(6-(3-(dimethylamino)propoxy)-1′-methyl-6′-oxo-1′,6′-dihydro-[3,4′-bipyridin]-3′-yl)-1H-pyrazol-1-yl)benzonitrile] | < 500 nM | – | –
– | CCOc1cc(=O)n(C)cc1-c1cnn(C(C)c2ccccc2)c1 (stereo not shown) [Example 39, 4-ethoxy-1-methyl-5-(1-(1-phenylethyl)-1H-pyrazol-4-yl) pyridin-2(1H)-one] | < 500 nM | – | –
